Data taken from patent US20250041280A1, “USE OF HETEROCYCLIC COMPOUNDS IN ALLEVIATING ADVERSE REACTIONS CAUSED BY CHEMOTHERAPEUTIC DRUGS” (TSINGHUA UNIVERSITY, priority 2021, published 2025).

Key:
[1] = test system: small intestinal organoids in mice; test: Protection of ISX on injury of mouse small intestinal organoids caused by etoposide, bright field and live cells/dead cells double staining; type: cell-based; conditions: then 4 days of culture
Source text: (§1) 1. Isolation of Crypts and Culture of Organoids

[2] = test system: small intestinal organoids in mice; test: Comparative experiment on the protective effects of PD332991, CHIR99021 and ISX on intestinal organoids; conditions: then 4 days of culture, FIG. 13
Source text: as §1
In this example, PD0332991 and CHIR99021 were used as reference compounds to evaluate the protective effect of the compounds of the present application on intestinal organoids.
After treatment, all compound treatments were terminated, and the organoids were washed 3 times with PBS, then culturing in fresh medium.

[3] = test system: small intestinal organoids in mice; test: Protection of ISX on injury of mouse small intestinal organoids caused by 5-FU, bright field and live cells/dead cells double staining; type: cell-based; conditions: then 4 days of culture
Source text: as §1

[4] = test system: small intestinal organoids in mice; test: Protection of ISX on injury of mouse small intestinal organoids caused by etoposide, immunofluorescence staining; type: cell-based; conditions: etoposide 50 uM + ISX 25 uM, 4 hours of treatment; FIG. 4
Source text: as §1
(§2) 3. Immunofluorescence of Organoids

[5] = test system: intestinal tract of mice; test: Protective effect of ISX on the intestinal tract of mice, TUNEL assay; type: in vivo; conditions: etoposide 20 mg/kg intraperitoneally, ISX 20 mg/kg orally
Experimental: 6-8 week-old wild-type B6 mice were randomly divided into two groups. One group was intraperitoneally injected with chemotherapeutic drug etoposide (20 mg/kg), and then orally administered a cosolvent (5% DMSO+0.5% Tween 80+0.5% CMC-Na) (5 mL/kg); another group was intraperitoneally injected with chemotherapeutic drug etoposide (20 mg/kg), and then orally administered ISX dissolved in a cosolvent (20 mg/kg). The mice were sacrificed 3 hours later, and the intestinal tissues were fixed, followed by TUNEL staining assay.

[6] = test system: small intestinal organoids in mice; test: Protection of ISX on injury of mouse small intestinal organoids caused by etoposide, Western blotting; type: cell-based; conditions: etoposide 50 uM + ISX 25 uM, 4 hours of treatment; FIG. 5
Experimental: as §1
5. Western Blotting Assay
After 4 hours of treatment, 4 groups of samples were collected for Western blotting assay.

[7] = test system: human colon organoids; test: Protection of ISX on human colon organoids, bright field and live cells/dead cells double staining; conditions: 5-FU 20 uM alone
Source text: Calcein-AM/PI Live Cells/Dead Cells Double Staining Assay
Calcein-AM can permeate the cell membrane, and the esterase in living cells can remove its AM group to produce calcein and emit fluorescence. PI (propidium iodide) cannot pass through the intact cell membrane, and only after the cell membrane is damaged and the permeability changes, PI can enter the cell to combine with DNA and emit fluorescence. Therefore, Calcein-AM/PI can be a label for distinguishing the live or dead cells.
Colon tissues were isolated from normal human tissue to perform organoid culture, after the culture was stable, performing subculture to continue the culture for 3-5 days. The culture was dividing into 4 groups: a control group of adding DMSO alone (DMSO group); a group of adding chemotherapy drug 5-fluorouracil (5-FU, 20 uM) alone (5-FU group); a group of adding ISX (10 uM) alone (ISX group); and a group of adding 5-FU (50 uM) and ISX (25 uM) simultaneously (5-FU+ISX group).
The signal generated by PI in the fluorescence image represents dead cells, and the signal generated by Calcein-AM represents living cells.

[8] = test system: small intestinal organoids in mice; test: Protection of ISX on injury of mouse small intestinal organoids caused by 5-FU, immunofluorescence staining (cleaved caspase-3); conditions: 5-FU 50 uM alone, 4 hours of treatment; FIG. 1
Source text: as §1, §2

[9] = 5-FU 50 uM + ISX 25 uM, 8 hours of treatment, FIG. 2
[10] = etoposide 50 uM + ISX 25 uM, 8 hours of treatment, FIG. 6

COc1cc([C@@H]2c3cc4c(cc3[C@@H](O[C@@H]3O[C@@H]5CO[C@@H](C)O[C@H]5[C@H](O)[C@H]3O)[C@H]3COC(=O)[C@H]23)OCO4)cc(OC)c1O [Eto, etoposide, reference compound] was tested, and the “biomass (bright field), Eto group compared with DMSO group” value ([1]; etoposide 50 uM alone, 8 hours of treatment, FIG. 6) was “significantly reduced”.

For CC(=O)c1c(C)c2cnc(Nc3ccc(N4CCNCC4)cn3)nc2n(C2CCCC2)c1=O [PD332991], the “protection of small intestinal organoids against 5-FU (live cells/dead cells double staining)” value ([2]; 5-FU 25 uM + PD0332991 100 nM) was “cannot protect small intestinal organoids”.

With O=C(NC1CC1)c1cc(-c2cccs2)on1 [ISX] the “biomass (bright field), 5-FU+ISX group compared with the 5-FU group” value [3, 9] was “significantly increased”, the “number of living cells (Calcein-AM), 5-FU+ISX group vs 5-FU group” value [3, 9] was “significantly more” and the “number of surviving crypt structures in each organoid, 5-FU+ISX group vs 5-FU group” value ([3]; 5-FU 50 uM + ISX 25 uM, 8 hours, p<0.01, FIG. 3) was “significant difference”. The “cell death (cleaved caspase-3 signal) caused by etoposide” value [4] was “significantly reduce the cell death”, the “number of TUNEL signals in each crypt, ISX group vs cosolvent group” value ([5]; 3 hours, p<0.01, FIG. 12) was “significant difference” and the “TUNEL signal, orally administered ISX group vs cosolvent group” value ([5]; sacrificed 3 hours later, FIG. 11) was “significantly lower”. For the same molecule, the “cell death caused by etoposide (Western blotting)” value [6] was “significantly reduce the cell death”, the “biomass (bright field), Eto+ISX group compared with the Eto group” value [1, 10] was “significantly increased” and the “number of living cells (Calcein-AM), Eto+ISX group vs Eto group” value [1, 10] was “significantly more”. The “number of surviving crypt structures in each organoid, Eto+ISX group vs Eto group” value ([1]; etoposide 50 uM + ISX 25 uM, 8 hours, p<0.01, FIG. 7) was “significant difference”.

For O=c1[nH]cc(F)c(=O)[nH]1 [5-FU, 5-fluorouracil], the “biomass (bright field), 5-FU group compared with DMSO group” value ([3]; 5-FU 50 uM alone, 8 hours of treatment, FIG. 2) was “significantly reduced”, the “number of crypt structures, 5-FU group vs DMSO group” value ([7]; 48 hours of treatment, p<0.01, FIGS. 8-9) was “significantly reduced” and the “dead cells (PI), 5-FU group compared with DMSO group” value ([7]; culture until day 5, FIG. 10) was “increased significantly”. For the same molecule, the “dead cells (cleaved caspase-3 signal), 5-FU group vs DMSO group” value [8] was “significantly higher”.

Cc1c[nH]c(-c2cnc(NCCNc3ccc(C#N)cn3)nc2-c2ccc(Cl)cc2Cl)n1 [CHIR99021] was tested, and the “protection of small intestinal organoids against 5-FU (live cells/dead cells double staining)” value ([2]; 5-FU 25 uM + CHIR99021 10 uM) was “cannot protect small intestinal organoids”.
